Key:
venous thrombosis = venous thrombosis test in rats (venous stasis under hypercoagulation with factor Xa, Wessler technique), activity via the oral route; format: in vivo, rat; settings: male Wistar rats, dose 6 mg/kg, thrombosis induced 2 h after administration
Experimental: The antithrombotic activity of the compounds according to the invention was studied in vivo in rats by virtue of a test in which a venous thrombosis is reproduced. The venous thrombosis was induced according to the protocol described in Thromb. Haemost., 1992, 67(1), 176-179. The activity via the oral route was studied according to the procedure described below. The experiment is carried out on non-fasting male Wistar rats weighing from 250 to 280 g and divided into groups of 10 animals each. The test products are administered orally (intubation) in solution or in suspension in a methylcellulose solution (0.5% in water). The concentrations of the compounds are calculated so as to bring about the absorption of an amount of solution of 10 ml/kg orally. A thrombosis is induced at time T after the administration of the product and the thrombus formed is removed and weighed. In order to induce this thrombosis, a venous stasis is brought about under hypercoagulation, according to the technique described by Wessler (J. Applied Physiol., 1959, 943-946), using a solution of activated factor X (Xa), supplied by Biogenic (Montpellier) and comprising a dose of 7.5 nKat/kg, as hypercoagulant. The venous stasis is brought about 10 seconds exactly after the injection of the hypercoagulant. The activity of the test compounds was monitored at various doses, after they had been administered. The thrombosis was induced 2 hours after the administration of the compound. By way of example, the results of the above tests are given in the following table for a few compounds according to the invention (the activity is expressed by the percentage of inhibition of the formation of the thrombus, observed in the presence of the compound according to the invention, with respect to the weight of the thrombus formed in the absence of the compound).

melting point	SMILES	Activity (percentage of inhibition of the formation of the thrombus) (venous thrombosis)
197 °C	O[C@@H]1[C@@H](O)[C@H](Oc2cccc(-c3cccnc3)c2)SC[C@H]1O [Example 22, 3-(3-Pyridinyl)phenyl 5-thio-β-D-xylopyranoside]	81%
207 °C	O[C@@H]1[C@@H](O)[C@H](Oc2ccc(-c3cccnc3)cc2F)SC[C@H]1O [Example 24, 2-Fluoro-4-(3-pyridinyl)phenyl 5-thio-β-D-xylopyranoside]	
177 °C	Cc1ccc(-c2cccc(O[C@@H]3SC[C@@H](O)[C@H](O)[C@H]3O)c2)cn1 [Example 29, 3-(6-Methyl-3-pyridinyl)phenyl 5-thio-β-D-xylopyranoside]	
194 °C	COc1ncccc1-c1cccc(O[C@@H]2SC[C@@H](O)[C@H](O)[C@H]2O)c1 [Example 33, 3-(2-Methoxy-3-pyridinyl)phenyl 5-thio-β-D-xylopyranoside]	

More lines, now with the values behind:

SMILES	melting point	Activity (percentage of inhibition of the formation of the thrombus) (venous thrombosis)
O[C@@H]1[C@@H](O)[C@H](Oc2ccc(-c3cccnc3)cc2)SC[C@H]1O [Example 6, 4-(3-Pyridinyl)phenyl 5-thio-β-D-xylopyranoside]	166 °C	
O[C@@H]1[C@@H](O)[C@H](Oc2ccc(-c3ccncc3)cc2)SC[C@H]1O [Example 8, 4-(4-Pyridinyl)phenyl-5-thio-β-D-xylopyranoside]		91%
O[C@@H]1[C@@H](O)[C@H](Oc2ccc(-c3ccccn3)cc2)SC[C@H]1O [Example 10, 4-(2-Pyridinyl)phenyl 5-thio-β-D-xylopyranoside]	197 °C	86%
O[C@@H]1[C@@H](O)[C@H](Oc2cccc(-c3ccccn3)c2)SC[C@H]1O [Example 12, 3-(2-Pyridinyl)phenyl 5-thio-β-D-xylopyranoside]	138 to 139 °C	88%
O[C@@H]1[C@@H](O)[C@H](Oc2ccccc2-c2ccncc2)SC[C@H]1O [Example 16, 2-(4-Pyridinyl)phenyl 5-thio-β-D-xylopyranoside]	134 °C	
O[C@@H]1[C@@H](O)[C@H](Oc2ccccc2-c2cccnc2)SC[C@H]1O [Example 18, 2-(3-Pyridinyl)phenyl 5-thio-β-D-xylopyranoside]	195 °C	
O[C@@H]1[C@@H](O)[C@H](Oc2cc(F)ccc2-c2ccncc2)SC[C@H]1O [Example 28, 5-Fluoro-2-(4-pyridinyl)phenyl 5-thio-β-D-xylopyranoside]		71%

From patent US8013010B2, “5-thioxylopyranose compounds” (Laboratoires Fournier S.A., priority 2006, dated 2011)
